Measurements as given in patent US20220280469A1, “PHARMACEUTICAL COMPOUND AND PREPARATION METHOD THEREFOR AND USE THEREOF” (priority 2019, published 2022).

Key:
[1] = Pharmacokinetics and tumor targeting of Pt in tumor tissue of pancreatic cancer orthotopic transplantation model mice; type: in vivo, mouse; details: 8 mg/kg
Description: Mouse pancreatic cancer cells transfected with luciferase reporter genes were used to prepare mouse pancreatic cancer orthotopic transplantation models. The tumor volume of the mice were determined by injecting […] into tail veins, and the mice with similar tumor volume were selected for evaluation of systemic PK and tumor-targeting property. […] Pharmacokinetic parameters were calculated using PK Solver 2.0.

[2] = tested on: PANC-1 subcutaneous transplantation tumor; assay: Anti-tumor effect in PANC-1 subcutaneous transplantation tumor model; type: in vivo, BALB/c Nude mouse; details: 4 mg/kg cisplatin (effective dose), once a week, 4 times
Description: The human pancreatic cancer cell strain PANC-1 was cultured in a DMEM high-glucose medium containing 10% FBS. Before being used, the cells were digested with pancreatin and centrifuged for 3 min at 800 r·min^−1 to remove the supernatant. The cells were resuspended in a serum-free DMEM medium, matrigel was added at a ratio of 1:1, and the number of the cells was adjusted to 5×10^6/mL. The cell suspension was inoculated subcutaneously to the right thigh at 100 μL/mouse. […] The tumor-bearing mice were randomly divided into 5 groups with 6 mice in each. […] The drugs were administered via tail vein injection. The administration was performed once a week, 4 times in total. The long (l) and short (r) diameters of the tumors were measured with a vernier caliper every other day to calculate tumor volume. All mice were sacrificed on day 11 after the administration cycle was completed, and they were dissected to get the tumors, which were then weighed. The tumor volume calculation formula was as follows: V=(l×r^2)/2.

[3] = tested on: MIA PaCa-2 pancreas orthotopic transplantation tumor; assay: Kaplan-Meier survival in MIA PaCa-2 pancreas orthotopic transplantation model; details: once every 7 days, three times
Description: Pancreas of BALB/c nude mice was transplanted orthotopically with Mia paca-2 cells (reporter gene: luciferase) to prepare pancreatic cancer transplantation in situ models, and then the mice were randomly divided into 4 groups with 6 mice in each, and administered with drugs 10 days after the models were established. […] The drugs were administered once every 7 days, three times in total. The mice were weighed every other day, and the survival state of the mice was recorded. Kaplan-Meier survival curves were drawn to examine the influence of different drug treatments on the survival state of the mice.

For N.N.[Cl][Pt][Cl] [cisplatin, cis-diamminedichloroplatinum], the “ID% (drug amount at a tumor site x 100%/injected drug amount)” value [1] was “less than 5%”, the “body weight of the mice during the administration process” value [2] was “remarkably decreased” and the “inhibition of PANC-1 subcutaneous transplantation tumor (tumor volume, tumor weight)” value ([2]; tail vein) was “no significant inhibition effect”. The “body weight of the mice in the whole treatment process” value [3] was “significantly reduced”.
